Source: patent publication US20060216238A1, “Compositions and methods for targeting or imaging a tissue in a vertebrate subject” (priority 2005, published 2006)

Key:
[1] = Trafficking of OG-CPMV in vivo by tissue fluorescence measurements; design: species or system mouse; details: oral, exception GI tissues and lymph nodes in 1 of 3 mice
Experimental: Inoculation of mice with free Oregon Green 488 dye. Mice were administered 3.81 μg per mouse of free OG-488 dye by oral gavage, the equivalent amount of dye as that attached to the CPMV particles given by oral gavage. One mouse per day for three days post inoculation was perfused and tissues were isolated for fluorescence measurements. Similarly, by the intravenous route three mice were injected with 0.509 μg per mouse of free OG-488 dye, the equivalent amount of dye as that attached to the CPMV particles administered i.v. Tissues were harvested from mice following perfusion as described above.
Fluorescence measurements. Tissues were isolated and homogenized in PBS, then centrifuged at 10,000 g for 10 minutes at 4° C. to precipitate the cell debris. The OG-488-specific fluorescence emissions in the clarified tissue supernatants were determined using a Varian Cary Eclipse fluorescence spectrophotometer. A control sample of sham-inoculated tissue supernatant from each tissue was spiked with a known amount of OG-CPMV and the tissue-specific dye excitation and emission were determined for each tissue. The determined tissue specific emission λ value was then used in five separate scans of each tissue supernatant sample, following which the spectra were averaged and the emission value of the sham-inoculated control sample was subtracted as background.

LCMV = details: mouse, in vivo
[2] = system: CD8+ T cells producing IFN-γ and TNF-α; experiment: Virus-specific CD8+ T-cell activity, ICCS assay; type: in vivo, mouse
HUVECS = experiment: Endothelial cell migration assay; type: cell-based, human
Experimental: Endothelial cell migration assay. Migration of calcein AM labeled cells (5 μM, 30 min, at 37° C.) was tested in the presence or absence of the CPMV chimeras using cell migration chambers Briefly, the lower wells were loaded with buffers containing various chemo-attractants. The framed filter membrane was positioned on the top and 50,000 calcein labeled HUVECs treated with/without the targeting chimeras were added to the top well above the membrane. The assembly was incubated for 2 h at 37° C. and the number of cells that transmigrated to the bottom wells was quantified by measuring the intensity of fluorescence at 488 nm.

## Oregon Green 488 (OG-488) carboxylic acid, succinimidyl ester [free OG-488 dye]
[1]
  fluorescence in tissues due to free dye: negligible in all tissues at all time points

## Lymphocytic choriomeningitis virus (LCMV), Armstrong strain
LCMV
  survival of lethal i.c. LCMV challenge: enabled the mice to survive the lethal i.c. inoculation
  survival of lethal i.c. LCMV challenge, boost experiment: All mice inoculated with LCMV 6 weeks before survived
[2]; assay 8 days after boosting
  CD8+ T cells producing IFN-γ: 13.53%
  CD8+ T cells producing TNF-α: 7.3%
[2]; primary response assay
  CD8+ T-cells producing IFN-γ: 10%
  CD8+ T-cells producing TNF-α: 6.5%

## VEGF [reference compound]
HUVECS
  stimulation of migration of cells across the filter: 30%
